Consider one compound from patent US11006631B2, “Substituted pyrimidinyloxy pyridine derivatives as herbicides” (FMC Corporation, priority 2015, dated 2021).

Assay type in all cases: in vivo
Test [1] has as its system foxtail, giant (giant foxtail, Setaria faberii). The test is described as follows: Test A preemergence, foxtail, giant. The settings on record: 0 to 100 scale. Summed up: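 Greenhouse pot test, loam + sand. Preemergence = soil spray at sowing; postemergence = foliar spray, 1–2 leaf stage, 2–10 cm tall. ~10 d, then visual injury vs untreated, 0–100.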
Test [2] relates to sedge, umbrella (small-flower umbrella sedge, Cyperus difformis). The test is described as follows: Test B flooded paddy test, sedge, umbrella. The settings on record: Flood, 250 g ai/ha; scale of 0 to 100. Summed up: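 2-leaf plants; flood 3 cm over soil; compound into paddy water; depth held. Greenhouse 13–15 d. Visual rating vs controls, 0 (no effect) to 100 (complete control); dash = not tested.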

Test [3] deals with nutsedge, yellow (yellow nutsedge, Cyperus esculentus). The test is described as follows: Test C postemergence, nutsedge, yellow. The text has this: (§1) Seeds of plant species selected from blackgrass (Alopecurus myosuroides), ryegrass, Italian (Italian ryegrass, Lolium multiflorum), wheat (winter wheat, Triticum aestivum), galium (catchweed bedstraw, Galium aparine), corn (Zea mays), crabgrass, large (large crabgrass, Digitaria sanguinalis), foxtail, giant (giant foxtail, Setaria faberii), lambsquarters (Chenopodium album), morningglory (Ipomoea coccinea), nutsedge, yellow (yellow nutsedge, Cyperus esculentus), pigweed (Amaranthus retroflexus), johnsongrass (Sorghum halepense), ragweed (common ragweed, Ambrosia elatior), soybean (Glycine max), barnyardgrass (Echinochloa crus-galli), oilseed rape (Brassica napus), waterhemp (common waterhemp, Amaranthus rudis), chickweed (common chickweed, Stellaria media), oat, wild (wild oat, Avena fatua), kochia (Kochia scoparia), and velvetleaf (Abutilon theophrasti) were planted in pots containing Redi-Earth® planting medium (Scotts Company, 14111 Scottslawn Road, Marysville, Ohio 43041) comprising spaghnum peat moss, vermiculite, wetting agent and starter nutrients and treated with postemergence applications of a test chemical formulated in a non-phytotoxic solvent mixture which included a surfactant. Plants ranged in height from 2 to 18 cm (1- to 4-leaf stage) for postemergence treatments. Treated plants and controls were maintained in a greenhouse for 13 to 15 days, after which time all species were compared to controls and visually evaluated. Plant response ratings, summarized in Table C, are based on a scale of 0 to 100 where 0 is no effect and 100 is complete control. A dash (-) response means no test result.

Test [4] has as its system pigweed (Amaranthus retroflexus). In words: Test C postemergence, pigweed.
From the text: as §1

Test [5] relates to velvetleaf (Abutilon theophrasti). The test is described as follows: Test C postemergence, velvetleaf.
From the text: as §1

As to `FC(F)c1cc(-c2ncccc2Oc2ncc(Cl)cn2)on1` [Compound 5, 5-chloro-2-[[2-[3-(difluoromethyl)-5-isoxazolyl]-3-pyridinyl]oxy]pyrimidine], the entries for the “Plant response rating, Foxtail, Giant” value in test [1] (31 g ai/ha) and in test [1] (125 g ai/ha) were 10 and 80, respectively. Besides, the “Plant response rating, Sedge, Umbrella” value in test [2] is 80. Also, the “Plant response rating, Nutsedge, Yellow” value in test [3] (16 g ai/ha) is given as 0; in test [3] (31 g ai/ha) it was 10; in test [3] (62 g ai/ha), 5; in test [3] (125 g ai/ha), 5. Besides, the “Plant response rating, Pigweed” value worked out at 65 in test [4] (16 g ai/ha), 75 in test [4] (31 g ai/ha), 75 in test [4] (62 g ai/ha) and 85 in test [4] (125 g ai/ha). Also, the “Plant response rating, Velvetleaf” value was 40 in test [5] (16 g ai/ha), 50 in test [5] (31 g ai/ha), 70 in test [5] (62 g ai/ha) and 60 in test [5] (125 g ai/ha).
